The source of these data is ChEMBL document CHEMBL4311944, “Discovery of 3-Oxabicyclo[4.1.0]heptane, a Non-nitrogen Containing Morpholine Isostere, and Its Application in Novel Inhibitors of the PI3K-AKT-mTOR Pathway” (J Med Chem, 2019).

The structures appear in SMILES notation. ≈ marks a conversion by molar mass, not a printed value. A value given as a limit tells only on which side of the number the result lay.

The nature of data set [1]: Inhibition of ligand binding to mTORC1/mTORC2 in human HuT78 cells after 2 hrs by kinobead competition binding assay. Format: cell-based.
The nature of data set [2]: Kinetic solubility of the compound in pH 7.4 phosphate buffered saline measured after 1 hr. It is filed as physicochemical. The conditions noted are these: read-out: Kinetic_solubility.
A short description of data set [3]: Lipophilicity, logP of the compound by reversed phase column chromatography. Format: physicochemical.
The nature of data set [4]: Intrinsic clearance in human microsomes. Format: ADME, Microsome.
Data set [5] has as its target Phosphatidylinositol 4,5-bisphosphate 3-kinase catalytic subunit alpha isoform (Homo sapiens, UniProt P42336).
Description: Inhibition of PI3Kalpha (unknown origin) using PIP2 as substrate preincubated for 15 mins followed by substrate addition and measured after 1 hr by HTRF assay
For data set [6], the target named is T1, Phosphatidylinositol 4,5-bisphosphate 3-kinase catalytic subunit delta isoform (Homo sapiens, UniProt O00329).
T1 sequence (O00329 whole entry): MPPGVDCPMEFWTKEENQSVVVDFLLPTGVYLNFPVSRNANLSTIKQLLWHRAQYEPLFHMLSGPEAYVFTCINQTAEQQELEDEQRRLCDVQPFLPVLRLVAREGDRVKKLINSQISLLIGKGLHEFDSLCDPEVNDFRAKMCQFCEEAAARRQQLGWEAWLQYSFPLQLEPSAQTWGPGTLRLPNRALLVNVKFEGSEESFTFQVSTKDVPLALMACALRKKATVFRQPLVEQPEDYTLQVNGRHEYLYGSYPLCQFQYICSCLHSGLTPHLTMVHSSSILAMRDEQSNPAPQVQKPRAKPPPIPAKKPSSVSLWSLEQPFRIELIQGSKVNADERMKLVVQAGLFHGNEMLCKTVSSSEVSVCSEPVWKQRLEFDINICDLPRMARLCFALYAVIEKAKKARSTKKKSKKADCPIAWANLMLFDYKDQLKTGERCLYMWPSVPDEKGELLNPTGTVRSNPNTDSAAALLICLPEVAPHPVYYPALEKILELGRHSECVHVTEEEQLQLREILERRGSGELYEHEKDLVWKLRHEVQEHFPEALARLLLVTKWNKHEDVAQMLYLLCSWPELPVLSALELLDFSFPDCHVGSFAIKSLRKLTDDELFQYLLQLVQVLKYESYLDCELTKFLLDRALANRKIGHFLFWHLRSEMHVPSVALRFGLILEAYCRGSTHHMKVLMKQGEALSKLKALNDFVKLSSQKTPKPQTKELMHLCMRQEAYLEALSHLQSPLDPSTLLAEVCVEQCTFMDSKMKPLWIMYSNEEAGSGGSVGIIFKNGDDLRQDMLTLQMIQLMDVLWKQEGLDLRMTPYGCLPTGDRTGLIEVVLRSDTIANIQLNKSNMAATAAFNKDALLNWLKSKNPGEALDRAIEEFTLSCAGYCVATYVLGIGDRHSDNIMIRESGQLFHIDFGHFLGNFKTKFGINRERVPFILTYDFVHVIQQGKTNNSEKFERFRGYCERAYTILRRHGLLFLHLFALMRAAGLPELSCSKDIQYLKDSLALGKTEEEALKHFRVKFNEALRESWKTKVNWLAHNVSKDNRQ
Briefly: Inhibition of PI3Kdelta (unknown origin) using PIP2 as substrate preincubated for 15 mins followed by substrate addition and measured after 1 hr by HTRF assay.

A short description of data set [7]: Inhibition of PI3K/AKT/mTOR in human lung fibroblasts assessed as reduction in AKT phosphorylation at serine473 residue preincubated for 1 hr followed by PDGF-BB stimulation and measured after 10 mins by electrochemiluminescence method.
A short description of data set [8]: Intrinsic clearance in rat microsomes. It is filed as ADME, Microsome.
A short description of data set [9]: Intrinsic clearance in human hepatocytes. Format: ADME, cell-based, Hepatocyte.
Data set [10] can be described thus: Intrinsic clearance in rat hepatocytes. Format: ADME, cell-based, Hepatocyte.

Phosphatidylinositol 4,5-bisphosphate 3-kinase catalytic subunit alpha isoform, sequence (P42336 whole entry, canonical isoform): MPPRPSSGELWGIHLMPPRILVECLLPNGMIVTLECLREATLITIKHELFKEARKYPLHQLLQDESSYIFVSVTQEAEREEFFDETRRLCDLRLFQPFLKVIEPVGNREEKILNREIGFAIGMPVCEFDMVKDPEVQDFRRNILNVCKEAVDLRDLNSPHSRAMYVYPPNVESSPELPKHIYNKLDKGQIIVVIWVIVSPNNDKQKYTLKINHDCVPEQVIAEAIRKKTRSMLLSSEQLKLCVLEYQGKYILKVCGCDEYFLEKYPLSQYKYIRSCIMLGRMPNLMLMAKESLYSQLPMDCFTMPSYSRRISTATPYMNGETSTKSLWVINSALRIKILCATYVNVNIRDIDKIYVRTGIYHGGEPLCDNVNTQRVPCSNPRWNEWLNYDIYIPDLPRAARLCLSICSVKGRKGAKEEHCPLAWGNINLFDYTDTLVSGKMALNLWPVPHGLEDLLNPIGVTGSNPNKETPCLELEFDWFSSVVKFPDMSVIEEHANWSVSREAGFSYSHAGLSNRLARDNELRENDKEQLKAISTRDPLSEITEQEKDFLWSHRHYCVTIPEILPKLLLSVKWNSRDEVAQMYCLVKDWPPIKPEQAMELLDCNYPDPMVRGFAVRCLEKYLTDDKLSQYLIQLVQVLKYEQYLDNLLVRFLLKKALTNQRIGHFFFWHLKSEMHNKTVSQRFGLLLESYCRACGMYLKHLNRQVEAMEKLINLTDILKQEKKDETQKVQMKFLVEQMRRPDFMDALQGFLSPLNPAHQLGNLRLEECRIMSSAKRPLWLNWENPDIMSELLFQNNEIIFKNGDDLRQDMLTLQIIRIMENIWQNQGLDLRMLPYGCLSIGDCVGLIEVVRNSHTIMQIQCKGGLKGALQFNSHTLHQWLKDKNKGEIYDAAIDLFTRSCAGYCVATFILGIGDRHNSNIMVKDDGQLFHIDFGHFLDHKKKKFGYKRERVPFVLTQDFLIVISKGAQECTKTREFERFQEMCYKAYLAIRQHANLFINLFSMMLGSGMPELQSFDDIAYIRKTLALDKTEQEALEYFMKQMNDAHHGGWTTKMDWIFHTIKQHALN

By pIC50 is commonly meant −log10 of the IC50, conventionally taken in molar units. A lower pIC50 goes with a large IC50. Broadly, the logP is the decadic logarithm of the partition coefficient of the neutral form, usually between octanol and water. The low end stands for a more hydrophilic compound, the high end for a more lipophilic compound. The IC50 is the concentration that gives 50% inhibition. Take `CCNC(=O)Nc1ccc(-c2nccc(N3CCOC[C@@H]3C)n2)cc1`: in data set [1], the negative logarithm of the IC50 (pIC50) was found to be 6.1. The solubility kinetic at 1 h in data set [2] turned out to be 136 µg/mL (≈ 398 µM). The compound also had a logP in data set [3] of 3.4. Besides, the CL in data set [4] was 1.2 mL/min/g; in [8], 2 mL/min/g. Also, the figures for the half-inhibitory concentration (IC50) in data set [5], in [6] and in data set [7] were 6.31 µM, 5.01 µM and 1.26 µM, respectively.
`CCNC(=O)Nc1ccc(-c2nccc([C@@]34CCOC[C@@H]3C4)n2)cc1`: the negative-log IC50 (pIC50) in data set [1] came out at 5.5. Also, the solubility kinetic at 1 h in data set [2] was determined as 127 µg/mL (≈ 375 µM). In addition, the logP in data set [3] is 3.9. Also, the CL in data set [4] turned out to be 1.4 mL/min/g; in [8] it was 16.7 mL/min/g. For the same compound, the results for the half-inhibitory concentration (IC50) in data set [5], in data set [6] and in [7] were more than 31.6 µM, 25.1 µM and 3.16 µM, respectively.
`C[C@H]1COCCN1c1cc(C(C)(C)S(C)(=O)=O)nc(-c2ccc(NC(=S)NCCO)cc2)n1` yielded a negative-log IC50 (pIC50) in data set [1] of 8.4. In data set [3], this compound had a logP of 3.6. Further, the CL stood at 0.9 mL/min/g in data set [4] and 0.8 mL/min/g in data set [8]. The CLH in [9] amounted to 0.9 mL/min/g; in [10] it was 2.8 mL/min/g. Besides, the IC50 in [7] was 0.0398 µM.
On to `CCNC(=O)Nc1ccc(-c2nccc([C@]34CCOC[C@H]3C4)n2)cc1`, for which, in [1], the pIC50 is reported as 6.1. The solubility kinetic at 1 h in data set [2] was determined as 125 µg/mL (≈ 369 µM). In addition, the log partition coefficient (logP) in data set [3] worked out at 3.9. The CL in [4] was 1.5 mL/min/g; in data set [8], 13.6 mL/min/g. The IC50 was 25.1 µM in [5], 25.1 µM in data set [6] and 2 µM in data set [7].
In turn, `CC(C)(c1cc([C@]23CCOC[C@H]2C3)nc(-c2cccc(O)c2)n1)S(C)(=O)=O` came in with a pIC50 in data set [1] of 5.5. In addition, the solubility kinetic at 1 h in data set [2] came to 135 µg/mL (≈ 348 µM). The lipophilicity (logP) in data set [3] was 4.8. Moreover, the IC50 in [5] was 15.8 µM; in data set [6], 10 µM; in data set [7], 1.26 µM.
Regarding `Oc1cccc(-c2nccc(C3=CCOCC3)n2)c1`, the pIC50 in data set [1] worked out at 5.7. Further, the solubility kinetic at 1 h in [2] turned out to be 113 µg/mL (≈ 444 µM). In [3], the logP is 3.6. Moreover, the values for the IC50 in [5], in data set [6] and in data set [7] were 3.16 µM, 1.26 µM and 3.16 µM, respectively.
`CCNC(=O)Nc1ccc(-c2nccc(C34CCOCC3C4)n2)cc1` (configuration not stated) gave a pIC50 in data set [1] of 5.8. For the same compound, the solubility kinetic at 1 h in data set [2] is 111 µg/mL (≈ 328 µM). The logP in data set [3] worked out at 4. In addition, the values for the IC50 in data set [5], in [6] and in data set [7] were 12.6 µM, 5.01 µM and 3.16 µM, respectively.
In turn, `Oc1cccc(-c2nccc(C3CCOCC3)n2)c1` had a negative-log IC50 (pIC50) in data set [1] of 4.5. Also, the solubility kinetic at 1 h in [2] stood at 100 µg/mL (≈ 390 µM). This compound showed a logP in data set [3] of 3.3. Further, the IC50 in [5] was 15.8 µM; in [6] it was 7.94 µM; in data set [7], 20 µM.
As for `CC(C)(c1cc([C@]23CCOC[C@H]2C3)nc(-c2ccc(NC(=S)NCCO)cc2)n1)S(C)(=O)=O`, the negative-log IC50 (pIC50) in [1] turned out to be 8.6. The solubility kinetic at 1 h in data set [2] is 173 µg/mL (≈ 353 µM). Besides, the logP in [3] was 3.9. For the same compound, the CL is 3.1 mL/min/g in data set [4] and 1.4 mL/min/g in [8]. For the same compound, the IC50 in data set [5] is 25.1 µM; in data set [6] it was 31.6 µM; in data set [7], 0.0316 µM. Moreover, the CLH in data set [9] was 5.1 mL/min/g; in data set [10], 13 mL/min/g.
`CNCC(=O)Nc1ccc(-c2nc(N3CCOC[C@@H]3C)cc(C(C)(C)S(C)(=O)=O)n2)cc1` returned a pIC50 in data set [1] of 8. For the same compound, the solubility kinetic at 1 h in [2] is 198 µg/mL (≈ 429 µM). Further, in data set [3], the log partition coefficient (logP) was 4.1. Moreover, the figures for the IC50 in data set [5], in [6] and in data set [7] were 15.8 µM, 1.58 µM and 0.0501 µM, respectively.
For the compound `CCNC(=O)Nc1ccc(-c2nccc(N3CCOCC3)n2)cc1`, the pIC50 in [1] is recorded as 6.5. In addition, the solubility kinetic at 1 h in data set [2] amounted to 109 µg/mL (≈ 333 µM). In data set [3], the logP came to 2.7. For the same compound, the concentration for half-maximal inhibition (IC50) in [5] is 12.6 µM; in data set [6], 10 µM; in data set [7], 3.98 µM.
